Measured values as given in patent US10344019B2 (priority 2010, dated 2019).
Where two headings read alike, the source gives them in different places.

How the values were obtained:
Assay type in all cases: cell-based
[1] = test system: HCV 4a Rluc cells (NS5A chimeric genotype 1b Con1 replicon with genotype 4a NS5A gene); assay: microbe, parasite or virus in culture; settings: Hepatitis C virus, read-out: 4a
Outline: (§1)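 Replicon cells stably carrying the listed RLuc-encoding dicistronic replicons were seeded and treated with DMSO serial dilutions of compound (10 mM stocks) diluted into culture medium. After 72 h, cells were lysed and Renilla luciferase activity measured. EC50 was derived by non-linear regression.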

[2] = test system: HCV 1a RLuc cells (dicistronic genotype 1a H77 replicon, RLuc reporter); assay: microbe, parasite or virus in culture; settings: Hepatitis C virus, read-out: 1a
Outline: (§2)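 Replicons used: genotype 1b Con1, 1a H77, 2a JFH-1, and a 2a JFH-1 chimera with J6-strain NS5A (M31 present), all dicistronic.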

[3] = test system: HCV 3a RLuc cells (NS5A chimeric genotype 1b Con1 replicon with consensus genotype 3a NS5A gene); assay: microbe, parasite or virus in culture; settings: Hepatitis C virus
Outline: as §1

[4] = test system: HCV 2a JFH-1 Rluc cells (dicistronic genotype 2a JFH-1 replicon, RLuc reporter); assay: microbe, parasite or virus in culture; settings: Hepatitis C virus, read-out: 2a JFH
Outline: as §2

[5] = test system: HCV 2b Rluc cells (NS5A chimeric genotype 2a JFH-1 replicon with genotype 2b MD2b-1 NS5A gene, M31 present); assay: microbe, parasite or virus in culture; settings: Hepatitis C virus, read-out: 2b
Outline: as §1

[6] = test system: HCV 1b RLuc cells (dicistronic genotype 1b Con1 replicon, RLuc reporter); assay: microbe, parasite or virus in culture; settings: Hepatitis C virus, read-out: 1b (nM)
Outline: as §2

[7] = test system: HCV 2a Rluc cells (NS5A chimeric genotype 2a JFH-1 replicon with genotype 2a J6 strain NS5A gene, M31 present); assay: HCV replicon reporter assay, genotype 2a J6 (M31 present); settings: Hepatitis C virus, read-out: 2a J6
Outline: as §2

[8] = read-out: 3a, genotype 3a NS5A chimeric replicon
[9] = genotype 2a JFH-1 RLuc replicon
[10] = read-out: 3a, genotype 3a replicon

| Compound | EC50 [1] [pM] | EC50 ([2]; genotype 1a H77 RLuc replicon) [pM] | EC50 [3, 8] [pM] | EC50 [4, 9] [pM] | EC50 [5] [pM] | EC50 [6] [nM] | EC50 [7] [pM] | EC50 ([2]; genotype 1a replicon) [pM] | EC50 [3, 10] [pM] | EC50 ([4]; genotype 2a JFH-1 replicon) [pM] | EC50 ([2]; genotype 1a H77 replicon, RLuc reporter) [pM] | EC50 ([3]; read-out: 3a, genotype 3a NS5A chimeric 1b Con1 replicon) [pM] | EC50 ([4]; genotype 2a JFH-1 replicon, RLuc reporter) [pM] | EC50 ([2]; 72 h, Table 1, genotype 1a H77 replicon, 72 hours) [pM] | EC50 ([3]; read-out: 3a, Table 1, genotype 3a NS5A chimeric replicon) [pM] | EC50 ([4]; 72 h, Table 1, genotype 2a JFH-1 replicon, 72 hours) [pM] | EC50 ([6]; 72 h) [nM] |
| --- | --- | --- | --- | --- | --- | --- | --- | --- | --- | --- | --- | --- | --- | --- | --- | --- | --- |
| COC(=O)N[C@@H](C(=O)N1[C@@H]2C[C@@H]2C[C@H]1c1ncc(-c2cc3c4c(c2)OCc2cc(-c5cnc([C@@H]6C[C@H]7C[C@H]7N6C(=O)[C@H](NC(=O)OC)c6ccccc6)[nH]5)cc(c2-4)OC3)[nH]1)c1ccccc1 [Example 496] | 1 to 990 | 1 to 999 | 1 to 990 | 1 to 999 | 1 to 999 | 0.011 | 1 to 999 |  |  |  |  |  |  |  |  |  |  |
| COC(=O)N[C@H](C(=O)N1CCC[C@H]1c1ncc(-c2cc3c4c(ccc5cc(-c6cnc([C@@H]7CCCN7C(=O)[C@@H](NC(=O)OC)C(C)C)[nH]6)cc(c54)OC3)c2)[nH]1)C(C)C [Example 408] | 1 to 990 |  |  |  | > 44000 | 0.022 | > 44000 | 1 to 999 | 1 to 990 | 1 to 999 |  |  |  |  |  |  |  |
| COC(=O)N[C@H](C(=O)N1CCC[C@H]1c1nc2ccc3cc(-c4ccc5c(ccc6nc([C@@H]7C[C@H](SC)CN7C(=O)[C@@H](NC(=O)OC)C(C)C)[nH]c65)c4)ccc3c2[nH]1)C(C)C [Example 515] | 1 to 990 | 1 to 999 | 1 to 990 | 1 to 999 | 1000 to 44000 | 0.047 | 1 to 999 |  |  |  |  |  |  |  |  |  |  |
| COC(=O)N[C@H](C(=O)N1CCC[C@H]1c1nc2ccc3cc(-c4ccc5c(ccc6nc([C@@H]7[C@H]8CC[C@H](C8)N7C(=O)[C@H](NC(=O)C7CC7)c7ccccc7)[nH]c65)c4)ccc3c2[nH]1)C(C)C [Example 455] | 1 to 990 |  |  |  | 1 to 999 | 0.029 | 1 to 999 | 1 to 999 | 1 to 990 | 1 to 999 |  |  |  |  |  |  |  |
| COC(=O)N[C@H](C(=O)N1CCCC1c1ncc(-c2ccc3c(c2)COc2cc4c(ccc5nc([C@@H]6C[C@@H]7CCC[C@@H]7N6C(=O)[C@@H](NC(=O)OC)C(C)C)[nH]c54)cc2-3)[nH]1)C(C)C (stereo partly shown) [Example 576] | 1 to 990 | 1 to 999 | 1 to 990 | 1 to 999 | 1 to 999 | 0.014 | 1000 to 44000 |  |  |  |  |  |  |  |  |  |  |
| COC(=O)N[C@H](C(=O)N1CCC[C@H]1c1ncc(-c2cc3c4c(c2)OCc2cc(-c5cnc([C@@H]6CCCN6C(=O)[C@H](NC(=O)OC)c6ccccc6)[nH]5)cc(c2-4)OC3)[nH]1)C1CCOCC1 [Example 364] | 1 to 990 |  |  |  | 1 to 999 | 0.335 | 1 to 999 | 1 to 999 | 1 to 990 | 1 to 999 |  |  |  |  |  |  |  |
| COC(=O)N[C@H](C(=O)N1[C@@H]2CC[C@@H](C2)[C@H]1c1nc2ccc3cc(-c4ccc5c(ccc6nc([C@@H]7CCCN7C(=O)[C@@H](NC(=O)OC)C7CCOCC7)[nH]c65)c4)ccc3c2[nH]1)C(C)C [Example 298] | 1 to 990 |  |  |  | 1000 to 44000 | 0.077 | 1 to 999 | 1 to 999 | 1 to 990 | 1 to 999 |  |  |  |  |  |  |  |
| COC(=O)N[C@H](C(=O)N1[C@@H](C)CC[C@H]1c1ncc(-c2cc3c4c(c2)OCc2cc(-c5cnc([C@@H]6CC[C@H](C)N6C(=O)[C@@H](NC(=O)OC)C(C)C)[nH]5)cc(c2-4)OC3)[nH]1)C(C)C [Example 460] | 1 to 990 |  |  |  | 1 to 999 | 0.018 | 1000 to 44000 | 1 to 999 | 1 to 990 | 1 to 999 |  |  |  |  |  |  |  |
| COC(=O)N[C@H](C(=O)N1[C@@H]2CC[C@@H](C2)[C@H]1c1nc2ccc3cc(-c4ccc5c(ccc6nc([C@@H]7CCCN7C(=O)[C@H](NC(=O)N7CCOCC7)c7ccccc7)[nH]c65)c4)ccc3c2[nH]1)C(C)C [Example 358] | 1 to 990 |  |  |  | 1 to 999 | 0.057 | 1 to 999 | 1 to 999 | 1 to 990 | 1 to 999 |  |  |  |  |  |  |  |
| O=C(N[C@@H](C(=O)N1CCC[C@H]1c1ncc(-c2cc3c4c(c2)OCc2cc(-c5cnc([C@@H]6CCCN6C(=O)[C@H](NC(=O)c6cccnc6)c6ccccc6)[nH]5)cc(c2-4)OC3)[nH]1)c1ccccc1)c1cccnc1 [Example 469] | 1 to 990 |  |  |  | 1 to 999 | 0.752 | 1 to 999 | 1 to 999 | 1 to 990 | 1 to 999 |  |  |  |  |  |  |  |
| COC[C@H]1C[C@@H](c2nc3ccc4cc(-c5ccc(-c6cnc([C@@H]7CCCN7C(=O)[C@H](NC(=O)OC)c7ccccc7)[nH]6)cc5)ccc4c3[nH]2)N(C(=O)[C@@H](NC(=O)OC)C(C)C)C1 [Example 415] | 1 to 990 |  |  |  | 1 to 999 | 0.034 | 1 to 999 | 1 to 999 | 1 to 990 | 1 to 999 |  |  |  |  |  |  |  |
| CCO[C@H]1C[C@@H](c2ncc(-c3ccc(-c4ccc5cc(-c6cnc([C@@H]7CCCN7C(=O)[C@@H](NC(=O)OC)C(C)C)[nH]6)ccc5c4)cc3)[nH]2)N(C(=O)[C@H](NC(=O)OC)c2ccccc2)C1 [Example 157] | 1 to 990 |  |  |  | 1000 to 44000 | 0.008 | > 44000 |  |  |  | 1 to 999 | 1000 to 4990 | 1 to 999 |  |  |  |  |
| O=C(N[C@@H](C(=O)N1CCC[C@H]1c1ncc(-c2cc3c4c(c2)OCc2cc(-c5cnc([C@@H]6CCCN6C(=O)[C@H](NC(=O)C6CC6)c6ccccc6)[nH]5)cc(c2-4)OC3)[nH]1)c1ccccc1)C1CC1 [Example 443] | 1 to 990 |  |  |  | 1 to 999 | 0.167 | 1 to 999 | 1 to 999 | 1 to 990 | 1 to 999 |  |  |  |  |  |  |  |
| COC(=O)N[C@H](C(=O)N1CCC[C@H]1c1nc2c([nH]1)-c1cc3c(cc1CC2)-c1ccc(-c2cnc([C@@H]4CCCN4C(=O)[C@H](NC(=O)C4CC4)c4ccccc4)[nH]2)cc1CO3)C(C)C [Example 494] | 1 to 990 | 1 to 999 | 1 to 990 | 1 to 999 | 1 to 999 | 0.021 | 1 to 999 |  |  |  |  |  |  |  |  |  |  |
| COC(=O)N[C@H](C(=O)N1C[C@@H](C)C[C@H]1c1ncc(-c2cc3c4c(c2)OCc2cc(-c5cnc([C@@H]6C[C@H](C)CN6C(=O)[C@H](NC(=O)C6C(C)(C)C6(C)C)c6ccccc6)[nH]5)cc(c2-4)OC3)[nH]1)C(C)C [Example 577] | 1 to 990 | 1 to 999 | 1 to 990 | 1 to 999 | 1000 to 44000 | 0.017 | > 44000 |  |  |  |  |  |  |  |  |  |  |
| CC[C@H](NC(=O)OC)C(=O)N1CCC[C@H]1c1ncc(-c2ccc3c4c(ccc3c2)-c2ccc(-c3cnc([C@@H]5CCCN5C(=O)[C@H](NC(=O)OC)c5ccccc5)[nH]3)cc2CO4)[nH]1 [Example 12] | 1 to 990 |  |  |  | > 44000 |  | > 44000 |  |  |  |  |  |  | 1 to 999 | 1 to 990 | 1 to 999 | 0.008 |
